The target of series [1] is T1, ROCK1 (Homo sapiens, UniProt Q13464).
T1 construct: purchased Upstate/Chemicon 14-601
Nature of the series: Rho kinase inhibition assay (IMAP fluorescence polarization), ROCK1. In kind it is biochemical. On the procedure:
Following the pre-incubation, 10 μM ATP was added to initiate the reaction. After 60 minutes at room temperature, Molecular Devices IMAP™ binding solution was added to bind phosphorylated substrate. After 30 minutes of incubation in the presence of the IMAP™ beads, the fluorescence polarization was read and the ratio was reported as mP.
Background: Fluorescence polarisation rises when a labelled molecule tumbles more slowly, as on binding a larger partner.

Series [2] concerns the target T2, ROCK2 (Homo sapiens, UniProt O75116).
T2 construct: purchased Upstate/Chemicon 14-451
Kind of series: Rho kinase inhibition assay (IMAP fluorescence polarization), ROCK2. The class given is biochemical. To be noted: 10 μM ATP, 60 min at room temperature. The protocol: (Molecular Devices product number R7184) was pre-incubated with a test compound for 5 minutes in buffer containing 10 mM Tris-HCl pH 7.2, 10 mM MgCl2, and 0.1% BSA. Following the pre-incubation, 10 μM ATP was added to initiate the reaction. After 60 minutes at room temperature, Molecular Devices IMAP™ binding solution was added to bind phosphorylated substrate. After 30 minutes of incubation in the presence of the IMAP™ beads, the fluorescence polarization was read and the ratio was reported as mP.
See Tian et al., Arch. Ophthalmol. […] Ophthalmol. Vis. […] Ophthalmol. […] Cytoskel. […] Ophthalmol. Vis. […] Ophthalmol. Vis.

A short description of series [3]: Ocular surface and aqueous humor bioavailability. Particulars: New Zealand White, rabbit, topical, 30 μl of 1 mM (0.04% w/v) per eye. The class given is in vivo, New Zealand White rabbits. On the procedure: Dose Formulation and Administration. Compounds 14 (prodrug) and 49 (base compound) were formulated at 0.04% w/v (the equivalent millimolar concentration is 1 mM) in 10 mM phosphate, 0.8% polysorbate 80, 0.85% NaCl, 0.01% BAC, 0.1% EDTA at pH 7.3. Each compound was administered as a 30 μl drop to both eyes of each animal within a dosing group and the ocular and systemic exposure was examined as described in Example 49.
Study sampling. 40 μL of saline was applied to the eyes at 0.083, 1, 2, and 4 hours after administration of each compound and the lavage fluids were collected as samples. Aqueous humor and ocular surface samples were obtained from 2 animals (4 eyes) per dosing group at 0.083, 1, 2, and 4 hours post dosing, by the methods described in Example 49. Ocular surface relates to the surface of the cornea and conjunctiva. Ocular surface residence time is the average time that a compound resides on the ocular surface.

The mark [4] stands for this setting: 10 μM ATP, 60 min at room temperature, read-out: ROCK1 IC50.
[5] abbreviates: ocular surface (saline lavage fluid).

pIC50: −log10 of the molar value. Where two headings read alike, the source gives them in different places.

T1 sequence (Q13464 whole entry): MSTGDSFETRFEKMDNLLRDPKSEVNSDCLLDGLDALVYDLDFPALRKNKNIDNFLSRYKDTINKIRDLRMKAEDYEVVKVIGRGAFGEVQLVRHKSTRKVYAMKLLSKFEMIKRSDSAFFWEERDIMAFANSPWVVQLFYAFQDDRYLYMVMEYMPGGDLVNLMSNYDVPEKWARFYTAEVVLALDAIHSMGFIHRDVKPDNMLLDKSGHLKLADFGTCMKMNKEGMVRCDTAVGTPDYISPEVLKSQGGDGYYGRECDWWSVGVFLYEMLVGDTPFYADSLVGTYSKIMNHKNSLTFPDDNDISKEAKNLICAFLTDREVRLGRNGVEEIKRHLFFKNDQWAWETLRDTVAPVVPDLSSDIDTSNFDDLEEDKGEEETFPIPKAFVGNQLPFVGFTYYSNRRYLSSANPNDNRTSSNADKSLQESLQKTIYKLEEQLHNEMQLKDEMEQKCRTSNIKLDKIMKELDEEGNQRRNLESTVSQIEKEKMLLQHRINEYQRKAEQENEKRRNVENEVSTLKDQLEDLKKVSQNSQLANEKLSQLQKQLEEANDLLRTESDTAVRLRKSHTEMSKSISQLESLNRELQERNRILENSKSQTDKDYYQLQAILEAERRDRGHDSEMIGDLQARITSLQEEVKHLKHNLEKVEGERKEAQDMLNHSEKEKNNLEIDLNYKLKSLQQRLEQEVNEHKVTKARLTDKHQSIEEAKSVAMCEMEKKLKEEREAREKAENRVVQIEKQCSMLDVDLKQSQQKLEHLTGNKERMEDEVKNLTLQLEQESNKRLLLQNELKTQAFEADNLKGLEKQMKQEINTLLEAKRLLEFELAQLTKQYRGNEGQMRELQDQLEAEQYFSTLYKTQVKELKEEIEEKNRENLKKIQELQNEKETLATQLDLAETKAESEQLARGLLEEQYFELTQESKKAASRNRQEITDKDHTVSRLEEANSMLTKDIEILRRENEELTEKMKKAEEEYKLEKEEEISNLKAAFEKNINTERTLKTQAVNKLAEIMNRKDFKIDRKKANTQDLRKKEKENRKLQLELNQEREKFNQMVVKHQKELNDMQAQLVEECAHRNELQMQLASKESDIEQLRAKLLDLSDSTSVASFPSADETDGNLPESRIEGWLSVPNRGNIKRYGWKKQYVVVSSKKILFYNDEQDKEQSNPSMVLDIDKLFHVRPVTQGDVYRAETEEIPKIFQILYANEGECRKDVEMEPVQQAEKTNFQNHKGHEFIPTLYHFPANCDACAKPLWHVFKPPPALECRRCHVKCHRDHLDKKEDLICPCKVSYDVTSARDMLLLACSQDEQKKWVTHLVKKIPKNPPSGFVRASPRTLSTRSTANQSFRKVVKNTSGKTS
T2 sequence (O75116 whole entry): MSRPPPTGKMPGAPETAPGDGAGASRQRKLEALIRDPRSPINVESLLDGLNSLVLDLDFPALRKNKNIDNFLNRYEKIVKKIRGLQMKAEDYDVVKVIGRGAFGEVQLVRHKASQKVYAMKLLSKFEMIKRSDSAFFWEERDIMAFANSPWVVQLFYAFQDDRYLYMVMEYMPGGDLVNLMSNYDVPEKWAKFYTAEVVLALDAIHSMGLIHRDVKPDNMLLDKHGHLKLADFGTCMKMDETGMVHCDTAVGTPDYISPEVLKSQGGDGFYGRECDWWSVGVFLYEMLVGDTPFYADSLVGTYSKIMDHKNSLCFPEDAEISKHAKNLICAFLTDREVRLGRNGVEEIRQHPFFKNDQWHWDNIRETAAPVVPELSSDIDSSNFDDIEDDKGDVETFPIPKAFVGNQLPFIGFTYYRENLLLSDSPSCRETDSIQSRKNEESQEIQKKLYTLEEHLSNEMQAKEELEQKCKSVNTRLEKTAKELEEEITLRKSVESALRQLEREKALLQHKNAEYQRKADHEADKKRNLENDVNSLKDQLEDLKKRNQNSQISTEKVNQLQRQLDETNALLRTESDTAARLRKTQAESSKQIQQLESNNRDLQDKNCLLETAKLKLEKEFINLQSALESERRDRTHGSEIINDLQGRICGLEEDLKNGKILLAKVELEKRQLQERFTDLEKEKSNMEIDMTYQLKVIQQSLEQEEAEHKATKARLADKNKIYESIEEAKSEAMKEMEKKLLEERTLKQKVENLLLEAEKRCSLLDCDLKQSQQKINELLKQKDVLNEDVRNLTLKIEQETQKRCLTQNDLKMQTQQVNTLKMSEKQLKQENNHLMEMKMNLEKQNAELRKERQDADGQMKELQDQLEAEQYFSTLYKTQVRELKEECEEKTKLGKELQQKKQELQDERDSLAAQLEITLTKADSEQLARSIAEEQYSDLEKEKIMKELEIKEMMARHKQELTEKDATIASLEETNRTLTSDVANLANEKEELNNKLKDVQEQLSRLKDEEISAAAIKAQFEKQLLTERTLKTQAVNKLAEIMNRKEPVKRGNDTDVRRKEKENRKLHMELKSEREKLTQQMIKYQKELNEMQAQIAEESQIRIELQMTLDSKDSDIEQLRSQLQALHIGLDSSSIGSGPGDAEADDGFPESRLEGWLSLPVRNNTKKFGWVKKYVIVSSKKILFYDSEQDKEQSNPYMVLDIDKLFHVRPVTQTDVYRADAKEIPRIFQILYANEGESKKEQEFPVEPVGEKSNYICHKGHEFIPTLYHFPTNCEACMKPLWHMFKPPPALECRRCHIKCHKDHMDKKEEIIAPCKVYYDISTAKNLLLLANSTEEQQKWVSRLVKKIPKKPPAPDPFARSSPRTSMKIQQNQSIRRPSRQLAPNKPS

With `CCOC(=O)OCCOc1cccc(CN2CC[C@@H](Nc3cccc4cnccc34)C2)c1` [Compound 17, 2-(3-(((R)-3-(isoquinolin-5-ylamino)pyrrolidin-1-yl)methyl)phenoxy)ethyl ethyl carbonate], the pIC50 (commonly −log10 of the IC50, conventionally taken in molar units) in series [1] (setting [4]) is 5.91; in series [2], 6.43.
Consider `CC(C)CC(=O)OCCOc1cccc(CN2CC[C@@H](Nc3cccc4cnccc34)C2)c1` [Compound 18, 2-(3-((((R)-3-(isoquinolin-5-ylamino)pyrrolidin-1-yl)methyl)phenoxy)ethyl 3-methylbutanoate)], for which the pIC50 in series [1] (setting [4]) was 5.42; in series [2], 5.83.
On to `CC1(C(=O)OCCOc2cccc(CN3CC[C@@H](Nc4cccc5cnccc45)C3)c2)CC1` [Compound 19, 2-(3-(((R)-3-(isoquinolin-5-ylamino)pyrrolidin-1-yl)methyl)phenoxy)ethyl 1-methylcyclopropanecarboxylate], for which the pIC50 in series [1] (setting [4]) was 5.51; in series [2] it was 5.98.
For `CC(C)(C)C(=O)OCCOc1cccc(CN2CC[C@@H](Nc3cccc4cnccc34)C2)c1` [Compound 20, 2-(3-(((R)-3-(isoquinolin-5-ylamino)pyrrolidin-1-yl)methyl)phenoxy)ethyl pivalate] the same measures were 5.32 and 5.75.
In the same order, the values of `O=C(OCCOc1cccc(CN2CC[C@@H](Nc3cccc4cnccc34)C2)c1)c1cccnc1` [Compound 21, 2-(3-(((R)-3-(isoquinolin-5-ylamino)pyrrolidin-1-yl)methyl)phenoxy)ethyl nicotinate] are 5.72 and 6.29.
In series [2], `CC(=O)Nc1ccc(CN2CCC(Nc3cccc4cnccc34)C2)cc1` (stereo not drawn) [Compound 25, N-(4-((3-(isoquinolin-5-ylamino)pyrrolidin-1-yl)methyl)phenyl)acetamide] gave a pIC50 of 5.64.
`Cc1ccc(CN2CCC[C@@H](Nc3ccc4[nH]ncc4c3)C2)cc1OCCOC(=O)c1ccccc1` [Compound 26, 2-(5-(((R)-3-(1H-indazol-5-ylamino)piperidin-1-yl)methyl)-2-methylphenoxy)ethyl benzoate]: the pIC50 in series [1] (setting [4]) is 5.22; in series [2] it was 6.21.
Regarding `CC(C)(C)OC(=O)COc1cccc(CN2CCC[C@H](Nc3ccc4[nH]ncc4c3)C2)c1` [Compound 27, tert-Butyl 2-(3-(((S)-3-(1H-indazol-5-ylamino)piperidin-1-yl)methyl)phenoxy) acetate], the values for the pIC50 in series [1] and in series [2] were 5.46 and 6.60, respectively.
Regarding `CCOC(=O)COc1cccc(CN2CCC[C@H](Nc3ccc4[nH]ncc4c3)C2)c1` [Compound 28], the pIC50 in series [1] was 5.99; in series [2], 6.96.
In the same order, the values of `CC(=O)NCCOc1cccc(CN2CCC[C@@H](Nc3ccc4[nH]ncc4c3)C2)c1` [Compound 29, N-(2-(3-(((R)-3-(1H-indazol-5-ylamino)piperidin-1-yl)methyl)phenoxy)ethyl) acetamide] are 5.29 and 6.01.
In the same order, the values of `CC(=O)NCCOc1cccc(CN2CCC[C@H](Nc3ccc4[nH]ncc4c3)C2)c1` [Compound 30, N-(2-(3-(((S)-3-(1H-indazol-5-ylamino)piperidin-1-yl)methyl)phenoxy)ethyl) acetamide] are 5.27 and 6.35.
In the same order, the values of `O=C(OCCOc1cccc(CN2CCC[C@H](Nc3ccc4[nH]ncc4c3)C2)c1)c1ccccc1` [Compound 31, 2-(3-(((S)-3-(1H-indazol-5-ylamino)piperidin-1-yl)methyl)phenoxy)ethyl benzoate] are 5.25 and 5.91.
Consider `O=C(OCCOc1cccc(CN2CCC[C@@H](Nc3ccc4[nH]ncc4c3)C2)c1)c1ccccc1` [Compound 32, 2-(3-((R)-3-(1H-indazol-5-ylamino)piperidin-1-yl)methyl)phenoxy)ethyl benzoate], for which the pIC50 in series [1] is 5.15; in series [2], 5.52.
With `O=C(COc1cccc(CN2CCC[C@@H](Nc3ccc4[nH]ncc4c3)C2)c1)Nc1cccnc1` [Compound 33, 2-(3-(((R)-3-(1H-indazol-5-ylamino)piperidin-1-yl)methyl)phenoxy)-N-(pyridin-3-yl)acetamide], the pIC50 was 6.00 in series [1] and 6.81 in series [2].
With `O=C(COc1cccc(CN2CCC[C@@H](Nc3ccc4[nH]ncc4c3)C2)c1)N1CCOCC1` [Compound 34, 2-(3-(((R)-3-(1H-indazol-5-ylamino)piperidin-1-yl)methyl)phenoxy)-1-morpholinoethanone], the figures for the pIC50 in series [1] and in series [2] were 5.89 and 6.99, respectively.
For `CCOC(=O)COc1cccc(CN2CCCC(Nc3ccc4[nH]ncc4c3)C2)c1` (stereo not drawn) [Compound 41, Ethyl 2-(3-((3-(1H-indazol-5-ylamino)piperidin-1-yl)methyl)phenoxy)acetate], in series [2], the pIC50 was 7.06.
As for `CC(=O)NCc1cccc(CN2CCC[C@@H](Nc3ccc4[nH]ncc4c3)C2)c1` [Compound 42, N-((3-(((R)-3-(1H-indazol-5-ylamino)piperidin-1-yl)methyl)phenyl)methyl) acetamide], the pIC50 was 5.62 in series [1] and 6.47 in series [2].
In the same order, the values of `CCOC(=O)c1ccc(CN2CCC[C@@H](Nc3ccc4[nH]ncc4c3)C2)cc1` [Compound 44, Ethyl 4-(((R)-3-(1H-indazol-5-ylamino)piperidin-1-yl)methyl)benzoate] are 3.93 and 5.21.
With `CCOC(=O)c1ccc(CN2CCC[C@H](Nc3ccc4[nH]ncc4c3)C2)cc1` [Compound 45, Ethyl 4-(((S)-3-(1H-indazol-5-ylamino)piperidin-1-yl)methyl)benzoate], the pIC50 in series [1] is 4.34; in series [2], 5.21.
Take `OCCOc1cccc(CN2CC[C@@H](Nc3cccc4cnccc34)C2)c1` [Compound 48, 2-(3-(((R)-3-(isoquinolin-5-ylamino)pyrrolidin-1-yl)methyl)phenoxy)ethanol]: the pIC50 in series [1] is 7.72; in series [2], 8.17.
As for `Cc1ccc(CN2CC[C@@H](Nc3cccc4cnccc34)C2)cc1OCCO` [Compound 49, [2-(5-(((R)-3-(isoquinolin-5-ylamino)pyrrolidin-1-yl)methyl)-2-methylphenoxy)]ethanol], the pIC50 in series [1] is 8.39. In series [3] (aqueous humor), this compound registered a concentration at 1 h of 93.9 nM, a concentration at 2 h of 24 nM and a concentration at 4 h of 3.4 nM. In series [3] (setting [5]), this compound had a concentration at 1 h of 846 nM, a concentration at 2 h of 893 nM and a concentration at 4 h of 65.7 nM.
With “tent-Butyl (3-((3-(1H-indazol-5-ylamino)piperidin-1-yl)methyl)phenyl)methyl carbamate [Compound 40]”, the negative logarithm of the IC50 (pIC50) in series [2] is 5.18.
As to “tert-Butyl (4-(((S)-3-(1H-indazol-5-ylamino)piperidin-1-yl)methyl)phenyl) methylcarbamate [Compound 43]”, the pIC50 in series [1] (setting [4]) is 4.60; in series [2], 5.40.
